Test results from US20240398812A1 (Caraway Therapeutics, Inc., priority 2021, published 2024).

Tests used:
Assay type in all cases: cell-based
TRPML3 = biological target: T1, TRPML3 (Homo sapiens, UniProt Q8TDD5); assay: Fluorescent TRPML3 assay (as for TRPML1)
T1 construct: expressed in transfected cells
T1 sequence (Q8TDD5 1-553): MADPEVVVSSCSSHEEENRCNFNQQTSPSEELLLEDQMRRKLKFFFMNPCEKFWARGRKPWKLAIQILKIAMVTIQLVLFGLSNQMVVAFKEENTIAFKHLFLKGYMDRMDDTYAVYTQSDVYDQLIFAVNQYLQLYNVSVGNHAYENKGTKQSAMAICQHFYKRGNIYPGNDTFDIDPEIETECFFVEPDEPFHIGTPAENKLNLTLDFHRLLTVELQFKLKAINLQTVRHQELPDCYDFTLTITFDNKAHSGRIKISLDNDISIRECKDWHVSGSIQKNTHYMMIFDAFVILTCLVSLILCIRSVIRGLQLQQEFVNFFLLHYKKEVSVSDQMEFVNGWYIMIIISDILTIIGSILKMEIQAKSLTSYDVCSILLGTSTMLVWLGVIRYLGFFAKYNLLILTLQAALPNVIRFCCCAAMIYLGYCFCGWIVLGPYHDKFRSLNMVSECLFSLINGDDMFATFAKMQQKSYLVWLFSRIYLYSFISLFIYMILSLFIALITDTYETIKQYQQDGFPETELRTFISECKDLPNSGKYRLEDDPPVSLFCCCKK
How it was run: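 EC50 came from non-linear regression of percent activity, set against on-plate positive and negative controls, using Fluo4 fluorescence (ex 480, em 540 nm). Compounds ran in triplicate from 6 nM to 20 µM final in half-log steps. Doxycycline-induced (0.5 ug/mL) HEK-293 Trex cells expressing surface-directed mutant channel were in 10 mM calcium Ringer's.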

human TRPML1 = human TRPML1 (Homo sapiens, UniProt Q9GZU1); assay: Fluorescent TRPML1 assay (Fluo4-AM calcium fluorescence, HEK-293 Trex cells)
How it was run: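 Agonist EC50 from non-linear regression of percent activity versus on-plate controls, calcium signal read at 480/540 nm. Compounds spanned 6 nM–20 μM final in triplicate. Cells: doxycycline-induced HEK-293 Trex with cell-surface human TRPML1 mutant, Fluo4-AM loaded, in Ringer's containing 10 mM calcium.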

TRPML2 = biological target: T2, TRPML2 (Homo sapiens, UniProt Q8IZK6); assay: Fluorescent TRPML2 assay (as for TRPML1)
T2 construct: expressed in transfected cells
T2 sequence (Q8IZK6 1-566): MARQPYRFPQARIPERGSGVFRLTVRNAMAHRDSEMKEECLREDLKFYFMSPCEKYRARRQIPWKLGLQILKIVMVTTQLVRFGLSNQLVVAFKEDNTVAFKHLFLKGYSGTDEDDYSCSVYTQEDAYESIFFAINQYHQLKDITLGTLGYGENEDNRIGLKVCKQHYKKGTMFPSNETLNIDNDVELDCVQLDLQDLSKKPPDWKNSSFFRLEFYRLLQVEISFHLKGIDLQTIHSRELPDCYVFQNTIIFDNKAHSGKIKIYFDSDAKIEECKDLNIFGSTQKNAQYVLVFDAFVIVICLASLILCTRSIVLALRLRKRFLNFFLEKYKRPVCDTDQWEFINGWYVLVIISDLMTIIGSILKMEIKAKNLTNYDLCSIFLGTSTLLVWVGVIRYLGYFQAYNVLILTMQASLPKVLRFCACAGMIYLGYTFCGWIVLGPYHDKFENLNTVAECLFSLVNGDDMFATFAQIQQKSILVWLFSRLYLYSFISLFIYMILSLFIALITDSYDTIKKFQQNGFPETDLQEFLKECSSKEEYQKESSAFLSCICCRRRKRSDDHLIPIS
Method: HEK-293 Trex cells were stably transfected with a construct consisting of the human coding sequence for TRPML1 cloned into the tet-inducible plasmid pCDNA5 T/O. Mutations were introduced into the TRPML1 sequence to facilitate expression on the cell surface (Silvia Vergarajauregui, Rosa Puertollano Traffic. 2006 March; 7 (3): 337-353). Briefly, the cells are cultured in 150 mm round tissue culture dishes containing 20 mL of media. The day before the assay the cells are rinsed with DPBS —Ca—Mg and then treated briefly with Trypsin-EDTA. The Trypsin-EDTA is diluted with growth media, and cells are counted. 38×10^6 cells are re-plated into 150 mm round tissue culture dishes in media containing 0.5 ug/mL doxycycline to induce expression of hTRPML1.
The day of the experiment cells are lifted from the plates as above and collected by centrifugation. The cells are then suspended in dye loading buffer consisting of Ringer's solution supplemented with 0.1% Pluronic Acid and 1 micromolar Fluo4-AM dye. Cells are loaded for ˜60 minutes in the dark with occasional mixing. The cells are collected by centrifugation, the loading media aspirated, and the cells resuspended in 25 mL Ringer's solution and incubated ˜60 minutes in the dark. The cells are again collected by centrifugation, rinsed in Ringer's Solution and resuspended to 0.2×10^6 cells/mL in modified Ringer's solution containing 10 mM calcium.
Compounds are dissolved to a concentration of 10 millimolar with DMSO. Compound plates are created by dispensing compounds into 384 well black wall clear bottom plates (Greiner 781091). Positive and negative controls are included on each plate. Typically, different amounts of each compound are tested ranging from 100 nanoMoles (20 micromolar final concentration) decreasing in half-log steps to 31 picoMoles (6 nanomolar final concentration). Each concentration is typically tested in triplicate.
50 microliters of dye-loaded cells are dispensed into each well of the compound assay plate created above. The fluorescence in each well is then determined with an excitation wavelength of 480 nm and an emission wavelength of 540 nm using either a Molecular Devices SpectraMax multimode plate reader or a Hamamatsu FDSS/uCell plate imager.
The resulting fluorescence for each well is exported as an ascii file and loaded into our LIMS for analysis. The percent activity of each compound at each concentration is determined by comparison to the positive and negative control wells included in each plate.
Assays for TRPML2 and TRPML3 were performed as above for TRPML1, by substituting the appropriate TRPML2 or TRPML3 subtype for the TRPML1.
EC50 values were calculated using a non-linear regression of Prism. In the table, “A” indicates an EC50 of less than 100 nM, “B” indicates an EC50 range from 100 nM to 500 nM; “C” indicates an EC50 range from 500 nM to 2 μM; and “D” indicates an EC50 greater than 2 μM.

Chain of human TRPML1 (Q9GZU1 whole entry L15A/L16A/L577A/L578A, form open): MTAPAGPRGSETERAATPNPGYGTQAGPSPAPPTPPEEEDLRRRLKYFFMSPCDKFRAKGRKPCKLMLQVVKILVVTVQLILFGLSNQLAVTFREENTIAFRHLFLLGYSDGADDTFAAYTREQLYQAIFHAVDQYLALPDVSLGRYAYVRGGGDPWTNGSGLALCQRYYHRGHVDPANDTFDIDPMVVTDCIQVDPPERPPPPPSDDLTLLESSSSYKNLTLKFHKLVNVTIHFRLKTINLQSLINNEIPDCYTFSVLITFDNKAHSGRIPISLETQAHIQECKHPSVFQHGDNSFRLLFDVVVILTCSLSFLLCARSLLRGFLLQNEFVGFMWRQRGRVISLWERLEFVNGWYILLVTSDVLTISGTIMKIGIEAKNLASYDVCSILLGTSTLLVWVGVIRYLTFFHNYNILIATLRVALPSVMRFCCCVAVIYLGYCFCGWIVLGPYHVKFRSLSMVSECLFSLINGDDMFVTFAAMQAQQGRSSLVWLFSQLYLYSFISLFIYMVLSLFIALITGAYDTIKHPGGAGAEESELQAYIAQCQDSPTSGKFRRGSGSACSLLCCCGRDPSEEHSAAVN

EC50 (TRPML3; Table 3, compounds 101-177) [µM]	EC50 (human TRPML1; Table 3, compounds 101-177) [µM]	EC50 (TRPML2; Table 3, compounds 101-177) [µM]	EC50 (TRPML3; Table 3, compounds 201-283) [µM]	EC50 (human TRPML1; Table 3, compounds 201-283) [µM]	EC50 (TRPML2; Table 3, compounds 201-283) [µM]	Structure (SMILES)
< 0.1	< 0.1	0.5 to 2	–	–	–	CC(C)C(=O)N1CCN(c2ncnc3c2c(-c2ccccc2)cn3-c2cc(C#N)ccn2)[C@@H](C)C1 [Compound 118, (S)-2-(4-(4-isobutyryl-2-methylpiperazin-1-yl)-5-phenyl-7H-pyrrolo[2,3-d]pyrimidin-7-yl)isonicotinonitrile]
< 0.1	< 0.1	< 0.1	–	–	–	C[C@H]1CN(C(=O)CC(C)(C)C(F)(F)F)CCN1c1ncnc2c1c(-c1ccccc1F)cn2-c1cc(C#N)ccn1 [Compound 140, (S)-2-(5-(2-fluorophenyl)-4-(2-methyl-4-(4,4,4-trifluoro-3,3-dimethylbutanoyl)piperazin-1-yl)-7H-pyrrolo[2,3-d]pyrimidin-7-yl)isonicotinonitrile]
–	–	–	0.5 to 2	0.1 to 0.5	0.5 to 2	C[C@@H]1CN(c2ncnc3c2c(C2CCC2)cn3-c2cccc(C(F)(F)F)c2)[C@@H](C)CN1C(=O)CC(C)(C)C(F)(F)F [Compound 262, 1-((2R,5S)-4-(5-cyclobutyl-7-(3-(trifluoromethyl)phenyl)-7H-pyrrolo[2,3-d]pyrimidin-4-yl)-2,5-dimethylpiperazin-1-yl)-4,4,4-trifluoro-3,3-dimethylbutan-1-one]
< 0.1	< 0.1	< 0.1	–	–	–	CC(C)(C)C(=O)N1CCN(c2ncnc3c2c(-c2ccccc2F)cn3-c2cc(C#N)ccn2)CC1 [Compound 108, 2-(5-(2-fluorophenyl)-4-(4-pivaloylpiperazin-1-yl)-7H-pyrrolo[2,3-d]pyrimidin-7-yl)isonicotinonitrile]
–	–	–	< 0.1	< 0.1	0.5 to 2	COC(C)(C)C(=O)N1C[C@H](C)N(c2ncnc3c2c(C(F)(F)F)cn3-c2cc(C#N)ccn2)C[C@H]1C [Compound 208, 2-(4-((2S,5R)-4-(2-methoxy-2-methylpropanoyl)-2,5-dimethylpiperazin-1-yl)-5-(trifluoromethyl)-7H-pyrrolo[2,3-d]pyrimidin-7-yl)isonicotinonitrile]
< 0.1	< 0.1	0.1 to 0.5	–	–	–	C[C@@H]1CN(c2ncnc3c2c(-c2ccccc2)cn3-c2cc(C#N)ccn2)CCN1C(=O)C(C)(C)C [Compound 121, (R)-2-(4-(3-methyl-4-pivaloylpiperazin-1-yl)-5-phenyl-7H-pyrrolo[2,3-d]pyrimidin-7-yl)isonicotinonitrile]
< 0.1	< 0.1	0.1 to 0.5	–	–	–	C[C@@H]1CN(c2ncnc3c2c(C2CC2)cn3-c2cc(C#N)ccn2)CCN1C(=O)C(C)(C)F [Compound 130, (R)-2-(5-cyclopropyl-4-(4-(2-fluoro-2-methylpropanoyl)-3-methylpiperazin-1-yl)-7H-pyrrolo[2,3-d]pyrimidin-7-yl)isonicotinonitrile]
–	–	–	< 0.1	< 0.1	0.5 to 2	COC(C)(C)C(=O)N1C[C@H](C)N(c2ncnc3c2c(C2CC2)cn3-c2cc(C#N)ccn2)C[C@H]1C [Compound 264, 2-(5-cyclopropyl-4-((2S,5R)-4-(2-methoxy-2-methylpropanoyl)-2,5-dimethylpiperazin-1-yl)-7H-pyrrolo[2,3-d]pyrimidin-7-yl)isonicotinonitrile]
–	–	–	0.5 to 2	0.5 to 2	> 2	C[C@@H]1CN(c2ncnc3c2c(C2CCC2)cn3-c2cc(F)cc(F)c2)[C@@H](C)CN1C(=O)CC(C)(C)C(F)(F)F [Compound 256, 1-((2R,5S)-4-(5-cyclobutyl-7-(3,5-difluorophenyl)-7H-pyrrolo[2,3-d]pyrimidin-4-yl)-2,5-dimethylpiperazin-1-yl)-4,4,4-trifluoro-3,3-dimethylbutan-1-one]
–	–	–	< 0.1	< 0.1	< 0.1	COC(C)(C)C(=O)N1C[C@H](C)N(c2ncnc3c2c(-c2ccccc2)cn3-c2cc(C#N)ccn2)C[C@H]1C [Compound 282, 2-(4-((2S,5R)-4-(2-methoxy-2-methylpropanoyl)-2,5-dimethylpiperazin-1-yl)-5-phenyl-7H-pyrrolo[2,3-d]pyrimidin-7-yl)isonicotinonitrile]
–	–	–	0.1 to 0.5	0.1 to 0.5	0.5 to 2	C[C@@H]1CN(c2ncnc3c2c(C2CCC2)cn3-c2cccc(F)c2)[C@@H](C)CN1C(=O)C(C)(C)C(F)(F)F [Compound 252, 1-((2R,5S)-4-(5-cyclobutyl-7-(3-fluorophenyl)-7H-pyrrolo[2,3-d]pyrimidin-4-yl)-2,5-dimethylpiperazin-1-yl)-3,3,3-trifluoro-2,2-dimethylpropan-1-one]
–	–	–	0.5 to 2	0.1 to 0.5	> 2	C[C@@H]1CN(c2ncnc3c2c(C2CCC2)cn3-c2cccc(C(F)(F)F)c2)[C@@H](C)CN1C(=O)C1(F)CC1 [Compound 260, ((2R,5S)-4-(5-cyclobutyl-7-(3-(trifluoromethyl)phenyl)-7H-pyrrolo[2,3-d]pyrimidin-4-yl)-2,5-dimethylpiperazin-1-yl)(1-fluorocyclopropyl)methanone]
< 0.1	< 0.1	< 0.1	–	–	–	CC(C)C(=O)N1C[C@H](C)N(c2ncnc3c2c(-c2ccccc2F)cn3-c2cc(C#N)ccn2)C[C@H]1C [Compound 139, 2-(5-(2-fluorophenyl)-4-((2S,5R)-4-isobutyryl-2,5-dimethylpiperazin-1-yl)-7H-pyrrolo[2,3-d]pyrimidin-7-yl)isonicotinonitrile]
–	–	–	0.5 to 2	0.1 to 0.5	> 2	C[C@@H]1CN(c2ncnc3c2c(C2CCC2)cn3-c2cccc(F)c2)[C@@H](C)CN1C(=O)C(C)(C)C [Compound 250, 1-((2R,5S)-4-(5-cyclobutyl-7-(3-fluorophenyl)-7H-pyrrolo[2,3-d]pyrimidin-4-yl)-2,5-dimethylpiperazin-1-yl)-2,2-dimethylpropan-1-one]
< 0.1	0.1 to 0.5	> 2	–	–	–	CC(C)CC(=O)N1C[C@H](C)N(c2ncnc3c2c(C2CC2)cn3-c2cc(C#N)ccn2)C[C@H]1C [Compound 154]
